Measurements reported in US20060069132A1, “Azolecarboxamide herbicides” (priority 2004, published 2006).

What was measured:
corn = test: Test C pre-/postemergence herbicide test; type: in vivo, Zea mays; conditions: preemergence; for Plant response rating (0 = no effect, 100 = complete control), Corn: 125 g ai/ha
In short: (§1)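 Pre- and postemergence application, solvent/surfactant formulation; post at 1- to 4-leaf stage (2–18 cm). Greenhouse 12–14 d. Visual rating vs controls, 0 = no effect, 100 = complete control.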

woolly cupgrass = test: Test C pre-/postemergence herbicide test; type: in vivo, Eriochloa villosa; conditions: preemergence; for Plant response rating (0 = no effect, 100 = complete control), Cupgrass, Woolly: 125 g ai/ha
In short: as §1

soybean = test: Test C pre-/postemergence herbicide test; type: in vivo, Glycine max; conditions: preemergence; for Plant response rating (0 = no effect, 100 = complete control), Soybean: 125 g ai/ha
In short: as §1

barnyardgrass = test: Test C flooded paddy test; type: in vivo, Echinochloa crus-galli; conditions: for Plant response rating, Barnyardgrass: 500 g ai/ha, visual rating after 12 to 14 days
In short: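 Weeds and wheat were sprayed after emergence, at a height of 2 to 18 cm (1–4 leaves), and paddy barnyardgrass was flooded and treated at two leaves. Assessment took place 12–14 days later in the greenhouse on a 0-to-100 visual control scale. A dash means no result was obtained.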

morningglory = test: Test C pre-/postemergence herbicide test; type: in vivo, Ipomoea coccinea; design: key to Plant response rating, Morningglory: 0 = no effect, 100 = complete control; conditions: preemergence; for Plant response rating (0 = no effect, 100 = complete control), Morningglory: 125 g ai/ha
In short: as §1

kochia = test: Test C pre-/postemergence herbicide test; type: in vivo, Kochia scoparia; conditions: preemergence; for Plant response rating (0 = no effect, 100 = complete control), Kochia: 125 g ai/ha
In short: as §1

yellow nutsedge = test: Test C pre-/postemergence herbicide test; type: in vivo, Cyperus esculentus; conditions: preemergence; for Plant response rating (0 = no effect, 100 = complete control), Nutsedge, Yellow: 125 g ai/ha
In short: as §1

[1] = system: smallflower umbrella sedge; test: Test C flooded paddy test; type: in vivo, Cyperus difformis; conditions: for Plant response rating, Sedge, Umbrella: 500 g ai/ha, visual rating after 12 to 14 days
lambsquarters = test: Test C pre-/postemergence herbicide test; type: in vivo, Chenopodium album; conditions: preemergence; for Plant response rating (0 = no effect, 100 = complete control), Lambsquarters: 125 g ai/ha
In short: as §1

pigweed = test: Test C pre-/postemergence herbicide test; type: in vivo, Amaranthus retroflexus; conditions: preemergence; for Plant response rating (0 = no effect, 100 = complete control), Pigweed: 125 g ai/ha
In short: as §1

goosegrass = test: Test C pre-/postemergence herbicide test; type: in vivo, Eleusine indica; conditions: preemergence; for Plant response rating (0 = no effect, 100 = complete control), Goosegrass: 125 g ai/ha
In short: as §1

Surinam grass = test: Test C pre-/postemergence herbicide test; type: in vivo, Urochloa decumbens; conditions: preemergence; for Plant response rating (0 = no effect, 100 = complete control), Surinam Grass: 125 g ai/ha
In short: as §1

[2] = 500 g ai/ha, scale 0 to 100 (0 no effect, 100 complete control), visual, 12 to 14 days
[3] = 62 g ai/ha, scale 0 to 100 (0 no effect, 100 complete control)
[4] = 125 g ai/ha, scale 0 to 100 (0 no effect, 100 complete control)
[5] = 250 g ai/ha, scale of 0 to 100, 0 is no effect, 100 is complete control
[6] = scale 0 to 100 (0 no effect, 100 complete control)

**Q.** What does the source list for `CCc1nn(C(C)(C)C)nc1C(=O)Nc1cccc(C(=S)N(C)C)c1` [Compound 395]?
**A.** Plant response rating, Corn (corn; 62 g ai/ha, scale 0 to 100): 0; Plant response rating (0 = no effect, 100 = complete control), Corn (corn): 45; Plant response rating, Corn (corn; 250 g ai/ha, scale 0-100): 85; Plant response rating, Corn (corn; [2]): 90; Plant response rating, Cupgrass, Woolly (woolly cupgrass; 62 g ai/ha, scale 0 to 100): 85; Plant response rating (0 = no effect, 100 = complete control), Cupgrass, Woolly (woolly cupgrass): 95; Plant response rating, Cupgrass, Woolly (woolly cupgrass; 250 g ai/ha, scale 0-100): 100; Plant response rating, Cupgrass, Woolly (woolly cupgrass; [2]): 100; Plant response rating, Soybean (soybean; 62 g ai/ha, scale 0 to 100): 75; Plant response rating (0 = no effect, 100 = complete control), Soybean (soybean): 85; Plant response rating, Soybean (soybean; 250 g ai/ha, scale 0-100): 100; Plant response rating, Soybean (soybean; [2]): 100; Barnyardgrass plant response rating (barnyardgrass; [3]): 75; Barnyardgrass plant response rating (barnyardgrass; [4]): 80; Barnyardgrass plant response rating (barnyardgrass; [5]): 80; Plant response rating, Barnyardgrass (barnyardgrass; [6]): 90; Plant response rating, Morningglory (morningglory; 62 g ai/ha, scale 0 to 100): 15; Plant response rating (0 = no effect, 100 = complete control), Morningglory (morningglory): 80; Plant response rating, Morningglory (morningglory; 250 g ai/ha, scale 0-100): 100; Plant response rating, Morningglory (morningglory; [2]): 100; Plant response rating, Kochia (kochia; 62 g ai/ha, scale 0 to 100): 100; Plant response rating (0 = no effect, 100 = complete control), Kochia (kochia): 100; Plant response rating, Kochia (kochia; 250 g ai/ha, scale 0-100): 100; Plant response rating, Kochia (kochia; [2]): 100; Plant response rating, Nutsedge, Yellow (yellow nutsedge; 62 g ai/ha, scale 0 to 100): 15; Plant response rating (0 = no effect, 100 = complete control), Nutsedge, Yellow (yellow nutsedge): 55; Plant response rating, Nutsedge, Yellow (yellow nutsedge; 250 g ai/ha, scale 0-100): 80; Plant response rating, Nutsedge, Yellow (yellow nutsedge; [2]): 90; Sedge, Umbrella plant response rating ([1]; 62 g ai/ha, scale 0 to 100): 70; Sedge, Umbrella plant response rating [1, 4]: 80; Sedge, Umbrella plant response rating [1, 5]: 85; Plant response rating, Sedge, Umbrella [1, 6]: 85; Plant response rating, Lambsquarters (lambsquarters; 62 g ai/ha, scale 0 to 100): 100; Plant response rating (0 = no effect, 100 = complete control), Lambsquarters (lambsquarters): 100; Plant response rating, Lambsquarters (lambsquarters; 250 g ai/ha, scale 0-100): 100; Plant response rating, Lambsquarters (lambsquarters; [2]): 100; Plant response rating, Pigweed (pigweed; 62 g ai/ha, scale 0 to 100): 100; Plant response rating (0 = no effect, 100 = complete control), Pigweed (pigweed): 100; Plant response rating, Pigweed (pigweed; 250 g ai/ha, scale 0-100): 100; Plant response rating, Pigweed (pigweed; [2]): 100; Plant response rating, Goosegrass (goosegrass; 62 g ai/ha, scale 0 to 100): 95; Plant response rating (0 = no effect, 100 = complete control), Goosegrass (goosegrass): 95; Plant response rating, Goosegrass (goosegrass; 250 g ai/ha, scale 0-100): 100; Plant response rating, Goosegrass (goosegrass; [2]): 100; Plant response rating, Surinam Grass (Surinam grass; 62 g ai/ha, scale 0 to 100): 95; Plant response rating (0 = no effect, 100 = complete control), Surinam Grass (Surinam grass): 100; Plant response rating, Surinam Grass (Surinam grass; 250 g ai/ha, scale 0-100): 100; Plant response rating, Surinam Grass (Surinam grass; [2]): 100

**Q.** What does the source list for `CCc1nn(C(C)(C)C)nc1C(=S)Nc1cccc(C(=S)N(C)C)c1` [Compound 396]?
**A.** Plant response rating, Corn (corn; 62 g ai/ha, scale 0 to 100): 0; Plant response rating (0 = no effect, 100 = complete control), Corn (corn): 30; Plant response rating, Corn (corn; 250 g ai/ha, scale 0-100): 60; Plant response rating, Corn (corn; [2]): 80; Plant response rating, Cupgrass, Woolly (woolly cupgrass; 62 g ai/ha, scale 0 to 100): 60; Plant response rating (0 = no effect, 100 = complete control), Cupgrass, Woolly (woolly cupgrass): 90; Plant response rating, Cupgrass, Woolly (woolly cupgrass; 250 g ai/ha, scale 0-100): 100; Plant response rating, Cupgrass, Woolly (woolly cupgrass; [2]): 100; Plant response rating, Soybean (soybean; 62 g ai/ha, scale 0 to 100): 0; Plant response rating (0 = no effect, 100 = complete control), Soybean (soybean): 75; Plant response rating, Soybean (soybean; 250 g ai/ha, scale 0-100): 100; Plant response rating, Soybean (soybean; [2]): 100; Barnyardgrass plant response rating (barnyardgrass; [3]): 65; Barnyardgrass plant response rating (barnyardgrass; [4]): 75; Barnyardgrass plant response rating (barnyardgrass; [5]): 75; Plant response rating, Barnyardgrass (barnyardgrass; [6]): 80; Plant response rating, Morningglory (morningglory; 62 g ai/ha, scale 0 to 100): 0; Plant response rating (0 = no effect, 100 = complete control), Morningglory (morningglory): 0; Plant response rating, Morningglory (morningglory; 250 g ai/ha, scale 0-100): 25; Plant response rating, Morningglory (morningglory; [2]): 70; Plant response rating, Kochia (kochia; 62 g ai/ha, scale 0 to 100): 0; Plant response rating (0 = no effect, 100 = complete control), Kochia (kochia): 45; Plant response rating, Kochia (kochia; 250 g ai/ha, scale 0-100): 100; Plant response rating, Kochia (kochia; [2]): 100; Plant response rating, Nutsedge, Yellow (yellow nutsedge; 62 g ai/ha, scale 0 to 100): 0; Plant response rating (0 = no effect, 100 = complete control), Nutsedge, Yellow (yellow nutsedge): 25; Plant response rating, Nutsedge, Yellow (yellow nutsedge; 250 g ai/ha, scale 0-100): 45; Plant response rating, Nutsedge, Yellow (yellow nutsedge; [2]): 80; Sedge, Umbrella plant response rating ([1]; 62 g ai/ha, scale 0 to 100): 70; Sedge, Umbrella plant response rating [1, 4]: 75; Sedge, Umbrella plant response rating [1, 5]: 85; Plant response rating, Sedge, Umbrella [1, 6]: 90; Plant response rating, Lambsquarters (lambsquarters; 62 g ai/ha, scale 0 to 100): 100; Plant response rating (0 = no effect, 100 = complete control), Lambsquarters (lambsquarters): 100; Plant response rating, Lambsquarters (lambsquarters; 250 g ai/ha, scale 0-100): 100; Plant response rating, Lambsquarters (lambsquarters; [2]): 100; Plant response rating, Pigweed (pigweed; 62 g ai/ha, scale 0 to 100): 100; Plant response rating (0 = no effect, 100 = complete control), Pigweed (pigweed): 100; Plant response rating, Pigweed (pigweed; 250 g ai/ha, scale 0-100): 100; Plant response rating, Pigweed (pigweed; [2]): 100; Plant response rating, Goosegrass (goosegrass; 62 g ai/ha, scale 0 to 100): 95; Plant response rating (0 = no effect, 100 = complete control), Goosegrass (goosegrass): 100; Plant response rating, Goosegrass (goosegrass; 250 g ai/ha, scale 0-100): 100; Plant response rating, Goosegrass (goosegrass; [2]): 100; Plant response rating, Surinam Grass (Surinam grass; 62 g ai/ha, scale 0 to 100): 65; Plant response rating (0 = no effect, 100 = complete control), Surinam Grass (Surinam grass): 95; Plant response rating, Surinam Grass (Surinam grass; 250 g ai/ha, scale 0-100): 100; Plant response rating, Surinam Grass (Surinam grass; [2]): 100
